Common to all, as to format: cell-based
The subject of experiment [1] is Lactobacillus acidophilus YIT 0198. Nature of the experiment: Culture of YIT 0198 in skimmed milk culture medium with L-cystine or L-cysteine. As to conditions: YIT 0198, skimmed milk culture medium, 0.05 (w/v) %, 37° C., 12 hours, FIG. 1. As to the method: Bifidobacterium breve YIT 12272 (hereinafter, referred to as BbY), Bifidobacterium bifidum YIT 10347 (hereinafter, referred to as BF-1), Lactobacillus casei YIT 9029 (hereinafter, referred to as YIT 9029), and Lactobacillus acidophilus YIT 0198 (hereinafter, referred to as YIT 0198) were used.
A skimmed milk powder (ABC, manufactured by MEGMILK SNOW BRAND Co., Ltd.) was dissolved in RO water at 12% (w/v), the solution was dispensed in 10 mL aliquots in a rimmed medium-sized test tube while replacing the headspace with nitrogen gas and sealed with a butyl rubber stopper. Subsequently, the solution was sterilized by heat in an autoclave (SX-500, manufactured by Tomy Seiko Co., Ltd.) at 115° C. for 30 minutes to provide a skimmed milk culture medium (additive-free culture medium). […]
The pH of a culture medium or a bacterial solution was measured using a desk-top pH meter (F52, manufactured by HORIBA, Ltd.). […]
Regardless of the bacterial strain, a bacterial solution was appropriately diluted with a 0.85% (w/v) sodium chloride aqueous solution (physiological saline solution). […] The grown colonies were counted as the viable cell count. […] Colonies were counted using a colony counter ProtoCOL (manufactured by Synoptics Ltd.).

Experiment [2] has as its system Bifidobacterium breve YIT 12272 (BbY). Put plainly: Culture of BbY in whey culture medium with L-cystine or L-cysteine. The note with it: for concentration at which the viable cell count was maximum: whey simultaneous heating culture medium, 12 hours. As to the method:
(§1) A skimmed milk powder was dissolved in RO water at 12% (w/v), and the 12% (w/v) skimmed milk was adjusted to a pH of 4.6 with 5 N HCl, followed by centrifugation at 3,000×g for 5 minutes. Subsequently, the supernatant was adjusted to a pH of 6.5 with 5 N NaOH and was centrifuged at 10,000×g for 15 to 30 minutes. The supernatant was dispensed in 10 mL aliquots in a rimmed medium-sized test tube while replacing the headspace with nitrogen gas and sealed with a butyl rubber stopper. Subsequently, the supernatant was sterilized by heat in an autoclave at 115° C. for 30 minutes to provide a whey culture medium separated before heating. In addition, as in the skimmed milk culture medium, simultaneous heating culture medium was prepared in anaerobic conditions by adding L-cystine or L-cysteine before heating and then performing heat sterilization. The addition concentration of L-cystine or L-cysteine was adjusted to 0.001, 0.003, 0.005, 0.01, 0.03, 0.05, or 0.1% (w/v) as the final concentration.
(§2) Inoculation and culture were performed as in Example 1 except that only when BbY was cultured in the skimmed milk culture medium, the culture time was 9 hours.
As in Example 2, whey separated before heating and simultaneous heating culture media with L-cysteine was prepared. In addition, a culture medium in which L-cysteine was added after heat sterilization and immediately before inoculation (individual heating culture medium) was also prepared. The addition concentration of L-cysteine was 0.03 (w/v) % as the final concentration.
A skimmed milk powder was dissolved in RO water at 12% (w/v), and the 12% (w/v) skimmed milk was sterilized by heat in an autoclave at 115° C. for 30 minutes in anaerobic conditions by nitrogen gas and was then adjusted to a pH of 4.6 with 5 N HCl, followed by centrifugation at 3,000×g for 5 minutes. Subsequently, the supernatant was adjusted to a pH of 6.5 with 5 N NaOH and was centrifuged at 10,000×g for 15 to 30 minutes. The supernatant was dispensed in 10 mL aliquots in a pre-sterilized rimmed medium-sized test tube while replacing the headspace with nitrogen gas and sealed with a butyl rubber stopper to provide a whey culture medium separated after heating. In addition, as in the skimmed milk culture media of Example 1, in anaerobic conditions, a culture medium in which L-cysteine was added before heating and then heat sterilization was performed (simultaneous heating culture medium) and a culture medium in which addition was performed after heat sterilization and before adjustment to pH 4.6 (individual heating culture medium) were also prepared.
Inoculation and culture were performed as in Example 1.
Based on the viable cell counts in (iii), each viable cell count ratio was calculated by dividing the viable cell count in the simultaneous heating culture medium by the viable cell count in the individual heating culture medium.

For experiment [3], the system named is Bifidobacterium bifidum YIT 10347 (BF-1). Nature of the experiment: Culture of BF-1 in whey culture medium with L-cystine or L-cysteine. As to conditions: BF-1, whey simultaneous heating culture medium, 12 hours. How it is done: as §1, §2
[4] abbreviates: whey separated after heating, L-cysteine, individual heating, culture time 9 h.
Where [5] appears, read: whey separated after heating, L-cysteine, individual heating, culture time 12 h.
Setting [6] is: whey separated after heating, L-cysteine, simultaneous heating, culture time 9 h.
[7] abbreviates: whey separated after heating, L-cysteine, simultaneous heating, culture time 12 h.
Setting [8] is: whey separated before heating, L-cysteine 0.03 (w/v) %, individual heating, culture time 9 h.
Setting [9] is: whey separated before heating, L-cysteine 0.03 (w/v) %, individual heating, culture time 12 h.
[10] abbreviates: whey separated before heating, L-cysteine 0.03 (w/v) %, simultaneous heating, culture time 9 h.
Where [11] appears, read: whey separated before heating, L-cysteine 0.03 (w/v) %, simultaneous heating, culture time 12 h.

Turning to `Cl.N[C@@H](CS)C(=O)O` [L-cysteine, L-cysteine hydrochloride], the “growth promotion by addition” value in experiment [1] is recorded as “not observed”. The Acidity turned out to be 3.43 ml/9 g in experiment [2] (setting [4]); 4.78 ml/9 g in experiment [2] (setting [5]); 4.23 ml/9 g in experiment [2] (setting [6]); 7.28 ml/9 g in experiment [2] (setting [7]); 2.15 ml/9 g in experiment [2] (setting [8]); 2.55 ml/9 g in experiment [2] (setting [9]). The Acidity in experiment [2] (setting [10]) worked out at 2.15 ml/9 g; in experiment [2] (setting [11]), 2.29 ml/9 g. The Viable cell count in experiment [2] (setting [4]) is listed as 8.89 × 10^8 CFU/ml; in experiment [2] (setting [5]), 1.32 × 10^9 CFU/ml; in experiment [2] (setting [6]) it was 1.29 × 10^9 CFU/ml; in experiment [2] (setting [7]), 2.22 × 10^9 CFU/ml; in experiment [2] (setting [8]), 1.24 × 10^8 CFU/ml; in experiment [2] (setting [9]) it was 1.42 × 10^8 CFU/ml. Also, the figures for the Viable cell count in experiment [2] (setting [10]) and in experiment [2] (setting [11]) were 2.53 × 10^8 CFU/ml and 3.29 × 10^8 CFU/ml, respectively. Besides, the pH in experiment [2] (setting [4]) is listed as 5.14; in experiment [2] (setting [5]), 4.81; in experiment [2] (setting [6]), 4.85; in experiment [2] (setting [7]), 4.32; in experiment [2] (setting [8]), 4.97; in experiment [2] (setting [9]), 4.82. The results for the pH in experiment [2] (setting [10]) and in experiment [2] (setting [11]) were 5.01 and 4.85, respectively. The “Viable cell count ratio (simultaneous/individual)” value in experiment [2] (whey separated after heating, culture time 9 h) is on record as 1.45; in experiment [2] (whey separated after heating, culture time 12 h) it was 1.68; in experiment [2] (whey separated before heating, culture time 9 h), 2.04; in experiment [2] (whey separated before heating, culture time 12 h) it was 2.31. Moreover, the “concentration at which the viable cell count was maximum” value in experiment [2] was 0.01 % (w/v); in experiment [3], 0.03 % (w/v).

On to `N[C@@H](CSSC[C@H](N)C(=O)O)C(=O)O` [L-cystine], for which the “growth promotion by addition” value in experiment [1] is “not observed”. The “concentration at which the viable cell count was maximum” value in experiment [2] was 0.01 % (w/v); in experiment [3] it was 0.03 % (w/v).
